For test [1], the system named is TH-stained dopaminergic neurons. Description: MPTP Model of Parkinson's Disease. It is filed as in vivo. The note with it: MPTP-lesioned CD1 mice; for % recovery of TH-stained dopaminergic neurons at 10 mg/kg: Mus musculus, Neuron, po, read-out: % TH recov 10 mg/kg p.o.
In a further test the target is FKBP (Homo sapiens, UniProt P62942). In words: Ki Test: inhibition of peptidyl-prolyl isomerase (rotamase) activity, chymotrypsin-coupled assay. The following applies: apparent Ki. It is filed as biochemical. From the text: Inhibition of the peptidyl-prolyl isomerase (rotamase) activity of the inventive compounds can be evaluated by known methods described in the literature (Harding et al., Nature, 1989, 341:758-760; Holt et al. J. Am. Chem. Soc., 115:9923-9938). These values are obtained as apparent Ki's and are presented for representative compounds in Table V. The cis-trans isomerization of an alanine-proline bond in a model substrate, N-succinyl-Ala-Ala-Pro-Phe-p-nitroanilide, is monitored spectrophotometrically in a chymotrypsin-coupled assay, which releases para-nitroanilide from the trans form of the substrate. The inhibition of this reaction caused by the addition of different concentrations of inhibitor is determined, and the data is analyzed as a change in first-order rate constant as a function of inhibitor concentration to yield the apparent Ki values.
In a plastic cuvette are added […] of ice cold assay buffer (25 mM HEPES, pH 7.8, 100 mM NaCl), […] of FKBP (2.5 mM in 10 mM Tris-Cl pH 7.5, 100 mM NaCl, 1 mM dithiothreitol), […] of chymotrypsin (50 mg/ml in 1 mM HCl) and […] of test compound at various concentrations in dimethyl sulfoxide. […]
The absorbance at 390 nm versus time is monitored for 90 seconds using a spectrophotometer and the rate constants are determined from the absorbance versus time data files.

FKBP, sequence (P62942 whole entry): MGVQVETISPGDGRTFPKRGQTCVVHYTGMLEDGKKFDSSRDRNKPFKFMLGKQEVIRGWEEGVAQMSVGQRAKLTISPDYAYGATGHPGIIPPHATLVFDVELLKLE

Take `CCC(C)(C)C(=O)C(=O)N1CCCN1C(=O)CCCc1ccccc1` [Compound 5, 3,3-dimethyl-1-[2-(4-phenylbutanoyl)-pyrazolidinyl]pentane-1,2-dione]: the % recovery of TH-stained dopaminergic neurons at 10 mg/kg in test [1] (10 mg/kg p.o.) is 4%.
Turning to `CCC(C)(C)C(=O)C(=O)N1CCCN1C(=O)CCC#Cc1cccnc1` [Compound 3, 3,3-dimethyl-1-[2-(5-(3-pyridyl)pent-4-ynoyl)-pyrazolidinyl]-pentane-1,2-dione], the % recovery of TH-stained dopaminergic neurons at 10 mg/kg in test [1] (10 mg/kg p.o.) is 26%.
Regarding `CCC(C)(C)C(=O)C(=O)N1CCCCN1C(=O)CCCCCc1cccnc1` [Compound 13, 3,3-dimethyl-2-[2-(6-(3-pyridyl)hexanoyl)-perhydropyridazinyl]-pentane-1,2-dione], the % recovery of TH-stained dopaminergic neurons at 10 mg/kg in test [1] (10 mg/kg p.o.) was 18%. Further, the Ki at FKBP came out at 3210 nM.
As for `CCC(C)(C)C(=O)C(=O)N1CCCN1C(=O)CCc1ccccc1` [Compound 2, 3,3-dimethyl-N-[2-(3-phenylpropanoyl)tetra-hydro-1H-1-pyrazolyl]-1,2-pentanedione], the % recovery of TH-stained dopaminergic neurons at 10 mg/kg in test [1] (10 mg/kg p.o.) came out at 10%.
Turning to `CCC(C)(C)C(=O)C(=O)N1CCCN1C(=O)CCCCc1ccccc1` [Compound 1, 3,3-dimethyl-N-[2-(5-phenylpentanoyl) -tetrahydro-1H-1-pyrazolyl]-1,2-pentanedione], the “% TH recov 4 mg/kg s.c.” value in test [1] (4 mg/kg s.c.) worked out at 14%. In addition, the Ki at FKBP was 1170 nM.
As for `CCC(C)(C)C(=O)C(=O)N1CCCCN1C(=O)OCCCc1ccccc1` [Compound 14, 3-phenylpropyl 2-(3,3-dimethyl-2-oxopentanoyl)-perhydropyridazine-carboxylate], the “% TH recov 10 mg/kg p.o.” value in test [1] (10 mg/kg p.o.) turned out to be 3%.
As to `CCC(C)(C)C(=O)C(=O)N1CCCCN1C(=O)OCCCCc1cccnc1` [Compound 17, 4-(3-pyridyl)butyl 2-(3,3-dimethyl-2-oxopentanoyl)-perhydropyridazine-carboxylate], the % recovery of TH-stained dopaminergic neurons at 10 mg/kg in test [1] (10 mg/kg p.o.) came to 38%.
For the compound `O=C(OCCCCc1ccccc1)N1CCCCN1S(=O)(=O)Cc1ccccc1` [Compound 106, 4-phenylbutyl 2-[benzylsunfonyl]-perhydropyridazine-carboxylate], the % recovery of TH-stained dopaminergic neurons at 10 mg/kg in test [1] (10 mg/kg p.o.) was found to be 23%.
Still for that read-out and setting: next, `CCC(C)(C)C(=O)C(=O)N1CCCCN1C(=O)OCCCCc1ccccc1` [Compound 15, 4-phenylbutyl 2-(3,3-dimethyl-2-oxopentanoyl)perhydro-pyridazinecarboxylate]: 21%.
Same read-out and setting: next, `CCC(C)(C)C(=O)C(=O)N1CCCCN1C(=O)CCCCc1ccccc1` [Compound 18, 3,3-dimethyl-1-[2-({5-phenyl)pentanoyl)-perhydropyridazinyl]-pentane-1,2-dione]: 18%.
For `O=C(NC1CCCCC1)N1CCCCN1C(=O)OCCCCc1ccccc1` [Compound 154, 4-phenylbutyl 2-(N-cyclohexylcarbamoyl)-perhydropyridazine-carboxylate], the % recovery of TH-stained dopaminergic neurons at 10 mg/kg in test [1] (10 mg/kg p.o.) worked out at 46%.
The same measure, in the same setting: next, `CCC(C)(C)C(=O)C(=O)N1CCCCN1C(=O)CCCCCc1ccccc1` [Compound 12, 3,3-dimethyl-1-[2-(6-phenylhexanoyl)-perhydropyridazinyl]-pentane-1,2-dione]: 35%.
Regarding `CCC(C)(C)C(=O)C(=O)N1CCCN1C(=O)CCCCCc1ccccc1` [Compound 6, 3,3-dimethyl-1-[2-(6-phenylhexanoyl)-pyrazolidinyl]pentane-1,2-dione], the % recovery of TH-stained dopaminergic neurons at 10 mg/kg in test [1] (10 mg/kg p.o.) stood at 32%.
In the case of `CCC(C)(C)C(=O)C(=O)N1CCCN1C(=O)CCCCc1cccnc1` [Compound 7, 3,3-dimethyl-1-[2-(5-(3-pyridyl)pentanoyl)-pyrazolidinyl]pentane-1,2-dione], in test [1] (10 mg/kg p.o.), the % recovery of TH-stained dopaminergic neurons at 10 mg/kg is 57%.
Take `CCC(C)(C)C(=O)C(=O)N1CCCCN1C(=O)OCCCCCc1ccccc1` [Compound 16, 5-phenylpentyl 2-(3,3-dimethyl-2-oxopentanoyl)perhydro-pyridazinecarboxylate]: the % recovery of TH-stained dopaminergic neurons at 10 mg/kg in test [1] (10 mg/kg p.o.) was found to be 49%.

Source of the values: patent US7253169B2, “Aza compounds, pharmaceutical compositions and methods of use” (Gliamed, Inc., priority 1999, dated 2007).
